Assay results reported in ChEMBL document CHEMBL1921744, “Lipophosphonoxins: new modular molecular structures with significant antibacterial properties” (J Med Chem, 2011).
Converted amounts (≈) assume the structure as drawn.

Tested on: Mycobacterium tuberculosis
Assay: Antimycobacterial activity against drug-resistant Mycobacterium tuberculosis
Assay type: functional

CO[C@@H]1[C@@H](OC)[C@H](C)O[C@@H](OC(=O)C[C@@H](C)CC(=O)O[C@@H](CCCCCCCCCCCC(C)C)CC(=O)O[C@H]2CN(C)[C@@H]([C@H](O[C@@H]3O[C@H](CN)[C@@H](O)[C@H]3O)[C@H]3O[C@@H](n4ccc(=O)[nH]c4=O)[C@H](O)[C@@H]3O)C(=O)N(C)[C@@H]2C(=O)O)[C@@H]1OC [CAPRAZAMYCIN B]
MIC: 3.13 µg/mL (≈ 2.7 µM)
